Key:
[1] = biological target: T1, human capsaicin receptor (VR1) (Homo sapiens, UniProt Q8NER1); assay: Capsaicin receptor binding assay ([3H]RTX competition); settings: read-out: Ki
T1 construct: transfected with the pBK-CMV expression construct encoding the full length human capsaicin receptor; expressed in transfected cells
Method in brief: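 Membranes from HEK293 cells stably expressing full-length human VR1; competition against 60 pM [3H]RTX, 60 min at 37 °C in HEPES/sucrose buffer pH 7.4 with 0.25 mg/ml BSA. Non-specific binding defined with 1 μM unlabelled RTX; alpha1-acid glycoprotein added after termination on ice.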

human capsaicin receptor = biological target: T2, human capsaicin receptor (Homo sapiens, UniProt Q8NER1); assay: Calcium mobilization assay, determination of agonist activity; type: cell-based; settings: capsaicin positive control, cells expressing human capsaicin receptor; read-out: approximate EC90 concentration
T2 construct: transfected with the pBK-CMV expression construct encoding the full length human capsaicin receptor; expressed in transfected cells
T2 sequence (Q8NER1 whole entry): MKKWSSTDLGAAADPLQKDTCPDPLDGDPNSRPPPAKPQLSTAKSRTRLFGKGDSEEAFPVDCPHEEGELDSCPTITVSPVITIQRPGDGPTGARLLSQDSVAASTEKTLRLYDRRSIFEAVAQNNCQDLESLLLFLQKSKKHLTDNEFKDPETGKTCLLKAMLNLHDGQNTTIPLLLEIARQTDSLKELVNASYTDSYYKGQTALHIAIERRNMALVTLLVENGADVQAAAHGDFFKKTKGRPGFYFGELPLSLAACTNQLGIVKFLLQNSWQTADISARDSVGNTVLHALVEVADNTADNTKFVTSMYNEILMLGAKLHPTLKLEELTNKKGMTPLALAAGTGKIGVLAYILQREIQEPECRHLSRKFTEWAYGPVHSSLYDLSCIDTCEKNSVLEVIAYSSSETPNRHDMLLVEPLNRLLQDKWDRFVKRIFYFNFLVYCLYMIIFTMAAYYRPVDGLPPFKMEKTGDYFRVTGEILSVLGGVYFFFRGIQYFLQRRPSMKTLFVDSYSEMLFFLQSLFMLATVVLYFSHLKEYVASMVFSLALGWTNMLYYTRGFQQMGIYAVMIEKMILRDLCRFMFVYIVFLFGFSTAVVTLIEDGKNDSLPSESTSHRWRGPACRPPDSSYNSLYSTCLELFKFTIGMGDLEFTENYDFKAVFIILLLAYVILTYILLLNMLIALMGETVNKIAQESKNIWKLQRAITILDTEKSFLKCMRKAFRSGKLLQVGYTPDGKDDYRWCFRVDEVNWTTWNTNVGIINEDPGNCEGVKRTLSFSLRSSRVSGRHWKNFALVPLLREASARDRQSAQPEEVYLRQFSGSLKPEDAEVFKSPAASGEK
Protocol: This Example illustrates representative calcium mobilization assays for use in evaluating test compounds for agonist and antagonist activity.
Cells transfected with expression plasmids (as described in Example 4) and thereby expressing human capsaicin receptor are seeded and grown to 70-90% confluency in FALCON black-walled, clear-bottomed 96-well plates (#3904, BECTON-DICKINSON, Franklin Lakes, N.J.). […]
To measure the ability of a test compound to agonize or antagonize a calcium mobilization response in cells expressing capsaicin receptors to capsaicin or other vanilloid agonist, the EC50 of the agonist capsaicin is first determined. […] Capsaicin-induced calcium mobilization is monitored using either FLUOROSKAN ASCENT (Labsystems; Franklin, Mass.) or FLIPR (fluorometric imaging plate reader system; Molecular Devices, Sunnyvale, Calif.) instruments. […] In this equation, y is the maximum fluorescence signal, x is the concentration of the agonist or antagonist (in this case, capsaicin), a is the Emax, b corresponds to the EC50 value and c is the Hill coefficient. […]
The ability of a test compound to act as an agonist of the capsaicin receptor is determined by measuring the fluorescence response of cells expressing capsaicin receptors elicited by the compound as function of compound concentration.

T1 sequence (Q8NER1 whole entry): as above

Which Ki [1] does the source give for `O=C(Nc1ccc2c(c1)CCC2)c1ccc(-c2cccc(OC(F)(F)F)c2)nc1` [Compound 464, N-Indan-5-yl-6-(3-trifluoromethoxy-phenyl)-nicotinamide] here?
The Ki was < 1 µM.

For `Cc1ccccc1-c1ccc(C(=O)Nc2ccc3c(c2)CCC3)cn1` [Compound 470, N-Indan-5-yl-6-o-tolyl-nicotinamide], which Ki [1] is on record?
The Ki was < 1 µM.

With `O=C(Nc1ccc2c(c1)CCC2)c1ccc(-c2ccccc2)nc1` [Compound 471, N-Indan-5-yl-6-phenyl-nicotinamide] as the compound, how does the Ki [1] read?
Its Ki is < 1 µM.

With `COc1cc(CNC(=O)CCCC/C=C/C(C)C)ccc1O` [capsaicin] as the compound, how does the EC90 (human capsaicin receptor) read?
The EC90 was ~0.1 µM.
